According to US4446148A, “Benzodioxanyl imidazoline compounds, compositions and use” (priority 1982, dated 1984):
“Also recorded” adds a separate entry of the source. Counter-ions that a name gives are not always drawn. Like-named read-outs stand apart in the source and are kept apart here.

Assays:
[1] = molecular target: T1, presynaptic α2-adrenoreceptor (Rattus norvegicus, UniProt P22909); assay: Presynaptic α2-adrenoreceptor antagonism versus clonidine on the stimulated rat vas deferens (isolated tissue); details: for Pre/postsynaptic ratio: presynaptic α2 (vs clonidine, vas deferens) to postsynaptic α1 (vs noradrenaline, anococcygeus) antagonism
T1 construct: on the rat vas deferens stimulated at a frequency of 0.1 Hz; from tissue; host or cells: rat vas deferens
T1 sequence (P22909 1-465): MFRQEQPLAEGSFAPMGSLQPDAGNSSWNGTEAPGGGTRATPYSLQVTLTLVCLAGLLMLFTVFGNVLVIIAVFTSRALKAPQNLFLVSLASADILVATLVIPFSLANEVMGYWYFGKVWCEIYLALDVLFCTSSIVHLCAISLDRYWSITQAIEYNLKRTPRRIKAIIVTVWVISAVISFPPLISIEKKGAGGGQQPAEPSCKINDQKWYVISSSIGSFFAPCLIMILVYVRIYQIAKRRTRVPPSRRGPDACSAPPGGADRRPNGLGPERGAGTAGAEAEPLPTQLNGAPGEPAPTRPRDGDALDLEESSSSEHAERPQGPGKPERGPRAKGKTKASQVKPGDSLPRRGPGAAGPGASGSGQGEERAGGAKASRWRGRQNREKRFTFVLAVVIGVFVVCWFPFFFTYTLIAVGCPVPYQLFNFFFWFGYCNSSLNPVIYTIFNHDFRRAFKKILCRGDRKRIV
Text: (§1) This in vitro model is particularly useful as an initial screen for studying presynaptic activity in isolation since the physiological nature of the vas deferens tissue is such that the postsynaptic receptors located therein are particularly inaccessible to exogenous agents. In consequence an alternative tissue, the rat anococcygeus muscle is used to establish postsynaptic α1 -adrenoreceptor activity. Antagonism of noradrenaline contractions is used to determine pA2 values at postsynaptic α1 -adrenoreceptors. The ratio of presynaptic α2 -adrenoreceptor antagonism (versus clonidine on the rat vas deferens) to postsynaptic α1 -adrenoreceptor antagonism (versus noradrenaline contractions on the rat anococcygeus muscle) is used to assess adrenoreceptor selectivity.
(§2) The results are the mean of a minimum of 5 experiments.

[2] = molecular target: T2, postsynaptic α1-adrenoreceptor (Rattus norvegicus, UniProt P43140); assay: Postsynaptic α1-adrenoreceptor antagonism versus noradrenaline contractions of the rat anococcygeus muscle (isolated tissue)
T2 construct: the rat anococcygeus muscle is used to establish postsynaptic α1 -adrenoreceptor activity; from tissue; host or cells: rat anococcygeus muscle
T2 sequence (P43140 1-466): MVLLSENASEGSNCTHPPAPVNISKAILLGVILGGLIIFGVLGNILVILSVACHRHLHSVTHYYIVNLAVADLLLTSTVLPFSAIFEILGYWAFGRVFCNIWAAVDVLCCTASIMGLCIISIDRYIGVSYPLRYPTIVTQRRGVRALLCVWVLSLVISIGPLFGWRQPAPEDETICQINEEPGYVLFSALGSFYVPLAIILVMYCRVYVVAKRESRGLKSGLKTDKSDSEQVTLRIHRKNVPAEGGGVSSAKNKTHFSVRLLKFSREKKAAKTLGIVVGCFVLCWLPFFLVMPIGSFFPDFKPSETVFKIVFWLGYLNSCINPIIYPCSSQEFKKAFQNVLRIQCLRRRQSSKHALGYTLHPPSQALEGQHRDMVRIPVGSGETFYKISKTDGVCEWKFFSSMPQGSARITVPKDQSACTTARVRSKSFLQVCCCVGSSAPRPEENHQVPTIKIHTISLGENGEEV
Text: as §1, §2

[3] = tested on: presynaptic α2-adrenoreceptors; assay: Presynaptic α2-adrenoreceptor antagonism in the pithed rat: reversal of clonidine block on vas deferens, intravenous; type: in vivo; details: for i.v. dose of antagonist causing 50% reversal of clonidine block on vas deferens: cumulative i.v. dosing, clonidine 100 μg/kg i.v., mean of minimum 4 rats
Description: This test model extends the evaluation of presynaptic α2 -adrenoreceptor antagonism versus clonidine on the rat vas deferens to the in vivo situation. Blood pressure and stimulation induced contractions of the vas deferens were monitored in pithed rats using the method of Brown, J., Doxey, J. C., Handley, S. and Virdee, N., Recent Advances in the Pharmacology of Adrenoceptors, Elsevier North Holland, 1978. Clonidine (100 μg/kg. i.v.) causes a prolonged pressor response and a prolonged inhibition of vas deferens contractions. The test drugs were injected intravenously in a cumulative dosing schedule and their abilities to reverse the inhibition of hypogastric nerve stimulation reflected their presynaptic antagonism.
The results are the mean of a minimum of 4 rats.

[4] = molecular target: T3, α2-binding sites (Rattus norvegicus, UniProt P22909); assay: Radioligand competition binding at α2-binding sites labelled by [^3 H]-RX781094 in rat cerebral cortex; details: for Ki: α2 Ki vs [^3 H]-RX 781094, rat cerebral cortex, 1 nM radioligand, 15 min, 25° C.; for activity of the enantiomers (in words): from Table 4 / testing results
T3 construct: A crude synaptosomal P2 fraction was prepared; from tissue; host or cells: cerebral cortex including hippocampus, male Sprague-Dawley rats, crude synaptosomal P2 fraction
T3 sequence (P22909 1-465): T1 sequence (P22909 1-465)
Text: The pharmacological activity of the racemic compound (RS) of Example 1 (in formula I R^1 =methyl) has been compared with the activities of the R and S enantiomers.
(§3) Male Sprague-Dawley rats, 250-300 g, were killed by decapitation, the brains quickly removed and the cerebral cortex dissected free from striatal tissue but including the hippocampus. Tissue was homogenized in ice-cold buffered sucrose (20 vols w/v 0.3 M sucrose in Tris/HCl buffer, 0.05 M, pH 7.4) using a Potter-type glass-teflon homogenizer. A crude synaptosomal P2 fraction was prepared and the washed P2 -pellet was resuspended in a physiological salt solution to give a final protein concentration of about 1 mg/ml. The physiological salt solution had the following composition (nM): 118 NaCl, 4.8 KCl, 1.3 CaCl2, 1.2 KH2 PO, 1.2 MgSO4, 25 NaHCO3 and was equilibrated with 95% O2 and 5% CO2.
Samples were incubated for 15 min at 25° C. and then rapidly filtered under vacuum through Whatman GFB filters and washed. Filters were transferred to scintillation vials and NE 260 miscellar scintillation fluid (3.5 ml) was added prior to scintillation counting (at 40% efficiency). Competition binding curves including up to eight concentrations of test antagonist were constructed and IC50 values determined. Hill plots made from each set of data were linear with Hill coefficients (nh) […] to 1.0 and inhibitor constants (Ki values) were derived from IC50 values.

[5] = molecular target: T3, α2-binding sites; assay: Saturation binding of [^3 H]-RX 781094 in rat cerebral cortex, Scatchard analysis; details: 0.1-35 nM radioligand, n=4
Description: as §3, with “mg/ml.” for “mg/ml. The physiological salt solution had the following composition (nM): 118 NaCl, 4.8 KCl, 1.3 CaCl2, 1.2 KH2 PO, 1.2 MgSO4, 25 NaHCO3 and was equilibrated with 95% O2 and 5% CO2.”

COC1(C2=NCCN2)COc2ccccc2O1 (racemic) [Example 1, 2-[2-(2-Methoxy-1,4-benzodioxanyl)]-2-imidazoline]
presynaptic α2 antagonist activity relative to the unsubstituted compound (A) ([1]; Table 2, relative to compound A): ~10 times
presynaptic α2 antagonist activity relative to the 2-methyl compound (B) ([1]; Table 2, relative to compound B): 10 times
presynaptic α2-adrenoreceptor antagonist potency and selectivity (in words) ([1]; compounds of Table 2): most potent presynaptic α2 -adrenoreceptor antagonist; also recorded: extremely selective for presynaptic sites
Pre/postsynaptic ratio [1]: 776
Kb ([1]; rat vas deferens, 0.1 Hz stimulation, vs clonidine, mean of minimum 5 experiments, read-out: Presynaptic antagonism pA2 vs Clonidine (vas deferens) (converted)): 0.0794 nM
Kb ([2]; rat anococcygeus muscle, vs noradrenaline, mean of minimum 5 experiments, read-out: Postsynaptic antagonism pA2 vs Noradrenaline (anococcygeus) (converted)): 63.1 nM
presynaptic α2 antagonist potency in the pithed rat (in words) ([3]; compounds of Table 3): clearly the most potent presynaptic α2 -adrenoreceptor antagonist
i.v. dose of antagonist causing 50% reversal of clonidine block on vas deferens ([3]; pithed rat): 0.002 mg/kg
Ki [4]: 0.8 ± 0.05 nM

COC1(C2=NCCN2)COc2ccccc2O1 (single isomer, unassigned) [S, 2-[2-(2-methoxy-1,4-benzodioxanyl)]-2-imidazoline]
potency of the S isomer relative to the racemate (in words) ([4]; from Table 4): twice as potent as the racemate
activity of the enantiomers (in words) ([4]; listed as (+) enantiomer): all the activity resided in the (+) enantiomer
activity of the enantiomers (in words) ([4]; listed as S isomer): the active form
Ki [4]: 0.36 ± 0.07 nM

COC1(C2=NCCN2)COc2ccccc2O1 (single isomer, unassigned; (-)) [R, (-)-2-[2-(2-methoxy-1,4-benzodioxanyl)]-2-imidazoline]
activity of the enantiomers (in words) ([4]; listed as R isomer): almost inactive
Ki [4]: 256 ± 59 nM

c1ccc2c(c1)OCC(C1=NCCN1)O2 (stereo not shown) [A, 2-[2-(1,4-benzodioxanyl)]-2-imidazoline, reference compound]
Kb [2]: 631 nM

CC1(C2=NCCN2)COc2ccccc2O1 (stereo not shown) [B, 2-[2-(2-methyl-1,4-benzodioxanyl)]-2-imidazoline, reference compound]
Pre/postsynaptic ratio [1]: 871

CN1CCN2c3ccccc3Cc3ccccc3C2C1 (stereo not shown) [Mianserin HCl]
i.v. dose of antagonist causing 50% reversal of clonidine block on vas deferens ([3]; pithed rat): > 4.4 mg/kg

CN1CCN2c3ccccc3Cc3ccccc3C2C1 (stereo not shown) [Mianserin]
maximum reversal of the inhibitory effects of clonidine on hypogastric nerve stimulation ([3]; pithed rat, cumulative intravenous dose of 4.4 mg/kg): 36%

Cc1ccc(N(CC2=NCCN2)c2cccc(O)c2)cc1 [Phentolamine mesylate]
i.v. dose of antagonist causing 50% reversal of clonidine block on vas deferens ([3]; pithed rat): 0.12 mg/kg

COC(=O)[C@@H]1[C@H]2C[C@H]3c4[nH]c5ccccc5c4CCN3C[C@@H]2CC[C@@H]1O [Yohimbine HCl]
i.v. dose of antagonist causing 50% reversal of clonidine block on vas deferens ([3]; pithed rat): 0.86 mg/kg

c1ccc2c(c1)OCC(C1=NCCN1)O2 (stereo not shown) [[^3 H]-RX 781094, 2-[2-(1,4-benzodioxanyl)]-2-imidazoline]
Bmax [5]: 147±36 f moles/mg protein
